# Literature values in patent US20190381034A1, “PHARMACEUTICAL COMPOSITION AND METHOD FOR ACUTE ON CHRONIC LIVER FAILURE AND RELATED LIVER DISEASES” (priority 2018, published 2019).
# Assays:
# [1] = in vivo
# [2] = laboratory test indicators, liver failure patients, oral TMZ 20 mg three times a day
structure (smiles),measurement,setting,value
"COc1ccc(CN2CCNCC2)c(OC)c1OC.Cl.Cl [TMZ, 1-[2,3,4-trimethoxybenzyl] piperazine dihydrochloride]",liver toxicity,liver,minimal liver toxicity
same,elimination half-life,[1],approximately 6 hours
same,30-day immortality rate of liver failure patients,"liver failure patients; TMZ treatment group, 20 mg tablet orally three times a day, 4-week course, traditional therapeutic approach 44%",approximately 18%
same,90-day immortality rate of liver failure patients,"liver failure patients; TMZ treatment group, 20 mg tablet orally three times a day, 4-week course, traditional therapeutic approach 68%",35%
same,decrease rate of alanine aminotransferase,liver failure patients; [2],significantly raise the decrease rate
same,decrease rate of aspartate transaminase,liver failure patients; [2],significantly raise the decrease rate
same,hepatic glucose metabolism (PET-CT imaging of liver),"liver failure patients; one liver failure patient, after taking TMZ",remarkably improved
